Results published in patent publication US7112586B2, “Substituted diamine derivatives useful as motilin antagonists” (Ortho-McNeil Pharmaceutical, Inc., priority 2000, dated 2006).

Biological target: T1, Motilin Receptor (Oryctolagus cuniculus, UniProt G1T803)
T1 construct: The muscle tissue was homogenized in 10 volumes of 50 mM Tris-Cl; from tissue; host or cells: rabbit colon smooth muscle, crude membrane homogenate
Test: Motilin receptor binding, rabbit colon membranes, 125I porcine motilin
Parameters: Rabbit Colon % Inh / inhibition / % Inh (Rabbit colon): dose or concentration left out as unconfirmed
Conditions: rabbit colon membranes; for inhibition: read-out: Rabbit Colon % Inh; for IC50: read-out: Rabbit Colon IC50
Procedure: Rabbit colon was removed, dissected free from the mucosa and serosa, and diced into small pieces. The muscle tissue was homogenized in 10 volumes of 50 mM Tris-Cl, 10 mM MgCl2, 0.1 mg/ml bacitracin, and 0.25 mM Peflabloc, at pH 7.5 in a Polytron (29000 rpm, 4×15 seconds). The homogenate was centrifuged at 1000×g for 15 minutes and the supernatant discarded. The pellet was washed twice before being suspended in homogenizing buffer. The crude homogenate was resuspended through a 23 gauge needle before storing at −80° C. […] After 60 minutes at 30° C., the samples were cooled in ice, centrifuged in the cold at 13000×g for 1 minute. The pellet was washed twice with 1 ml of cold saline, the supernatant was aspirated, and the pellet at the bottom of the tube counted in a gamma counter. Non-specific binding was determined by the inclusion of 1 mM of unlabeled motilin. IC50 values were determined from Kaleidograph curves.

T1 sequence (G1T803 1-400): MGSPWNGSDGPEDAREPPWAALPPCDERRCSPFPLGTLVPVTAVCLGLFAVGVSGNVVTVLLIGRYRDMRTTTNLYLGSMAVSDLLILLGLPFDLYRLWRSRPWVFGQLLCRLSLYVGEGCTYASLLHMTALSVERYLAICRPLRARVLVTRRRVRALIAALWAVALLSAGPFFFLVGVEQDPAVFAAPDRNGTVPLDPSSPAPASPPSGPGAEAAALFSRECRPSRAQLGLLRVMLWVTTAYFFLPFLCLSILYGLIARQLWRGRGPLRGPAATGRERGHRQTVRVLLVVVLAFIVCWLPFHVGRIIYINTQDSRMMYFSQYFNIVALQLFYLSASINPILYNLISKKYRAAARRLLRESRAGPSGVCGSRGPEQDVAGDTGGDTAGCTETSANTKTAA

Structure (SMILES) | Rabbit Colon % Inh | inhibition | IC50
O=C(c1ccc(F)cc1)N(CC1CCCC(N(Cc2ccccc2)C(=O)CCc2ccccc2)C1)c1cccc(OCCN2CCOCC2)c1 (centres unmarked) [compound 115] | 26% |  | 
CC(C)(C)C(=O)N(Cc1ccccc1)C1CCCC(CN(C(=O)c2ccc(F)cc2)c2cccc(OCCN3CCOCC3)c2)C1 (centres unmarked) [compound 116] |  | 61% | 772 nM
COc1cccc(C(=O)N(Cc2ccccc2)C2CCCC(CN(C(=O)c3ccc(F)cc3)c3cccc(OCCN4CCOCC4)c3)C2)c1 (centres unmarked) [compound 117] | 17% |  | 
O=C(c1ccc(F)cc1)N(CC1CCCC(N(Cc2ccccc2)C(=O)c2ccc(-c3ccccc3)cc2)C1)c1cccc(OCCN2CCOCC2)c1 (centres unmarked) [compound 118] | 58% |  | 
O=C(c1ccc(F)cc1)N(CC1CCCC(N(Cc2ccccc2)C(=O)c2cc(C(F)(F)F)cc(C(F)(F)F)c2)C1)c1cccc(OCCN2CCOCC2)c1 (centres unmarked) [compound 119] | 22% |  | 
O=C(c1ccc(F)cc1)N(CC1CCCC(N(Cc2ccccc2)C(=O)C(F)(F)F)C1)c1cccc(OCCN2CCOCC2)c1 (centres unmarked) [compound 120] |  | 69% | 954 nM
O=C(c1ccc(F)cc1)N(CC1CCCC(N(Cc2ccccc2)C(=O)C(Cl)(Cl)Cl)C1)c1cccc(OCCN2CCOCC2)c1 (centres unmarked) [compound 122] |  | 64% | 840 nM
O=C(c1ccc(F)cc1)N(CC1CCCC(N(Cc2ccccc2)S(=O)(=O)c2ccc3ccccc3c2)C1)c1cccc(OCCN2CCOCC2)c1 (centres unmarked) [compound 123] | 8% |  | 
O=C(c1ccc(F)cc1)N(CC1CCCC(N(Cc2ccccc2)C(=O)c2ccco2)C1)c1cccc(OCCN2CCOCC2)c1 (centres unmarked) [compound 124] |  | 70% | 904 nM
O=C(c1ccc(F)cc1)N(CC1CCCC(N(Cc2ccccc2)C(=O)Nc2ccccc2)C1)c1cccc(OCCN2CCOCC2)c1 (centres unmarked) [compound 125] | 25% |  | 
O=C(CCC(=O)N(Cc1ccc(F)cc1)c1cccc(OCCN2CCOCC2)c1)N(CCc1ccccc1)Cc1ccccc1 [compound 128] |  | 75% | 230 nM
O=C(CCCC(=O)N(Cc1ccc(F)cc1)c1cccc(OCCN2CCOCC2)c1)N(CCc1ccccc1)Cc1ccccc1 [compound 129] |  | 90% | 58 nM
O=C(CCc1ccccc1)N[C@@H](Cc1ccccc1)C(=O)N(Cc1ccc(F)cc1)c1cccc(OCCN2CCOCC2)c1 [compound 130] | 8% |  | 
O=C([C@H](Cc1ccccc1)NC(=O)C(Cl)(Cl)Cl)N(Cc1ccc(F)cc1)c1cccc(OCCN2CCOCC2)c1 [compound 131] | 19% |  | 
O=C(N[C@@H](Cc1ccccc1)C(=O)N(Cc1ccc(F)cc1)c1cccc(OCCN2CCOCC2)c1)c1ccc(-c2ccccc2)cc1 [compound 132] | 10% |  | 
O=C(N[C@@H](Cc1ccccc1)C(=O)N(Cc1ccc(F)cc1)c1cccc(OCCN2CCOCC2)c1)C(c1ccccc1)c1ccccc1 [compound 133] | 6% |  | 
COc1cccc(CC(=O)N[C@@H](Cc2ccccc2)C(=O)N(Cc2ccc(F)cc2)c2cccc(OCCN3CCOCC3)c2)c1 [compound 134] | 0% |  | 
O=C([C@H](Cc1ccccc1)NS(=O)(=O)c1ccc(-c2ccccc2)cc1)N(Cc1ccc(F)cc1)c1cccc(OCCN2CCOCC2)c1 [compound 135] | 8% |  | 
O=C(c1cccc(CN(C(=O)c2ccc(F)cc2)c2cccc(OCCN3CCOCC3)c2)c1)N(CCc1ccccc1)Cc1ccccc1 [compound 136] | 43% |  | 
O=C(NC(c1ccccc1)c1ccccc1)c1cccc(CN(C(=O)c2ccc(F)cc2)c2cccc(OCCN3CCOCC3)c2)c1 [compound 137] | 30% |  | 
O=C(NCCc1ccccc1)c1cccc(CN(C(=O)c2ccc(F)cc2)c2cccc(OCCN3CCOCC3)c2)c1 [compound 138] |  | 36% | 
CC(C)(C)CN(Cc1ccccc1)C(=O)c1cccc(CN(C(=O)c2ccc(F)cc2)c2cccc(OCCN3CCOCC3)c2)c1 [compound 140] | 45% |  | 
CC(C)(C)CN(Cc1cccc(Cl)c1)C(=O)c1cccc(CN(C(=O)c2ccc(F)cc2)c2cccc(OCCN3CCOCC3)c2)c1 [compound 141] | 21% |  | 
O=C(c1ccc(F)cc1)N(Cc1cccc(C(=O)N2CCc3ccccc3C2c2ccccc2)c1)c1cccc(OCCN2CCOCC2)c1 (centres unmarked) [compound 142] | 17% |  | 
O=C(CCCN(C(=O)c1ccc(F)cc1)c1cccc(OCCN2CCOCC2)c1)NC(c1ccccc1)c1ccccc1 [compound 143] | 0% |  | 
O=C(CCCN(C(=O)c1ccc(F)cc1)c1cccc(OCCN2CCOCC2)c1)N(CCCc1ccccc1)Cc1ccccc1 [compound 144] | 54% |  | 
CC(C)(C)CN(Cc1ccccc1)C(=O)CCCN(C(=O)c1ccc(F)cc1)c1cccc(OCCN2CCOCC2)c1 [compound 145] | 35% |  | 

Structure (SMILES) | Rabbit Colon % Inh | inhibition | IC50
COc1ccc(CCN(Cc2ccccc2)C(=O)CCCN(C(=O)c2ccc(F)cc2)c2cccc(OCCN3CCOCC3)c2)cc1 [compound 146] | 32% |  | 
COc1ccc(CCN(Cc2cccc(Cl)c2)C(=O)CCCN(C(=O)c2ccc(F)cc2)c2cccc(OCCN3CCOCC3)c2)cc1 [compound 147] |  | 61% | 490 nM
O=C(c1ccc(F)cc1)N(CCCC(=O)N1CCc2ccccc2C1c1ccccc1)c1cccc(OCCN2CCOCC2)c1 (centres unmarked) [compound 148] | 19% |  | 
O=C(CCCN(C(=O)c1ccc(F)cc1)c1cccc(OCCN2CCOCC2)c1)N1CCN(C(c2ccccc2)c2ccc(Cl)cc2)CC1 (centres unmarked) [compound 149] | 27% |  | 
O=C([C@H](Cc1ccccc1)N(Cc1ccccc1)C(=O)C(Cl)(Cl)Cl)N(Cc1ccc(F)cc1)c1cccc(OCCN2CCOCC2)c1 [compound 151] | 1% |  | 
O=C([C@H](Cc1ccccc1)N(Cc1ccccc1)C(=O)CCc1ccccc1)N(Cc1ccc(F)cc1)c1cccc(OCCN2CCOCC2)c1 [compound 152] | 0% |  | 
O=C(C1CC=CCC1C(=O)N(Cc1ccc(F)cc1)c1cccc(OCCN2CCOCC2)c1)N(CCc1ccccc1)Cc1ccccc1 (centres unmarked) [compound 155] | 34% |  | 
O=C(Nc1cccc(OCCN2CCOCC2)c1)C1=C(C(=O)N(CCc2ccccc2)Cc2ccccc2)CCC1 [compound 156] | 18% |  | 
O=C(CCCC(=O)N(Cc1ccc(F)cc1)c1cccc(OCCN2CCOCC2)c1)N(CCCc1ccccc1)Cc1ccccc1 [compound 159] |  | 83% | 275 nM
O=C(CCC(=O)N(Cc1ccccc1F)c1cccc(OCCN2CCOCC2)c1)N(CCc1ccccc1)Cc1ccccc1 [compound 165] |  | 63% | 550 nM
COc1ccc(CN(C(=O)CCC(=O)N(CCc2ccccc2)Cc2ccccc2)c2cccc(OCCN3CCOCC3)c2)cc1 [compound 166] | 23% |  | 
O=C(CCC(=O)N(Cc1ccc(C(F)(F)F)cc1)c1cccc(OCCN2CCOCC2)c1)N(CCc1ccccc1)Cc1ccccc1 [compound 167] | 42% |  | 
O=C(CCC(=O)N(Cc1ccc(Cl)cc1)c1cccc(OCCN2CCOCC2)c1)N(CCc1ccccc1)Cc1ccccc1 [compound 168] | 36% |  | 
O=C(CCCC(=O)N(Cc1ccc(C(F)(F)F)cc1)c1cccc(OCCN2CCOCC2)c1)N(CCc1ccccc1)Cc1ccccc1 [compound 172] | 40% |  | 
O=C(c1ccc(F)cc1)N(CC1CCC(N(Cc2ccccn2)C(=O)C(Cl)(Cl)Cl)CC1)c1cccc(OCCN2CCOCC2)c1 (centres unmarked) [compound 174] | 0% |  | 
O=C(CCCC(=O)N(Cc1ccc(F)cc1)c1cccc(O)c1)N(CCc1ccccc1)Cc1ccccc1 [compound 175] | 0% |  | 
O=C1CCCN1CCOc1cccc(N(Cc2ccc(F)cc2)C(=O)CCCC(=O)N(CCc2ccccc2)Cc2ccccc2)c1 [compound 176] | 32% |  | 
O=C(Nc1ccccc1)N(CC1CCC(N(Cc2ccccc2)C(=O)Cc2ccccc2)CC1)c1cccc(OCCN2CCOCC2)c1 (centres unmarked) [compound 183] | 2% |  | 
COc1cccc(C(=O)N(Cc2cccc(Cl)c2)C2CCC(CN(C(=O)Nc3ccccc3)c3cccc(OCCN4CCOCC4)c3)CC2)c1 (centres unmarked) [compound 184] | 6% |  | 
O=C(Nc1ccccc1)N(CC1CCC(N(Cc2cccc(Cl)c2)C(=O)c2ccco2)CC1)c1cccc(OCCN2CCOCC2)c1 (centres unmarked) [compound 185] | 0% |  | 
COc1cccc(C(=O)N(Cc2cccc([N+](=O)[O-])c2)C2CCC(CN(C(=O)Nc3ccccc3)c3cccc(OCCN4CCOCC4)c3)CC2)c1 (centres unmarked) [compound 186] | 0% |  | 
CN(C)CCCOc1cccc(N(Cc2ccc(F)cc2)C(=O)CCCC(=O)N(CCc2ccccc2)Cc2ccccc2)c1 [compound 187] |  | 100% | 229 nM
CC(CC(=O)N(CCc1ccccc1)Cc1ccccc1)CC(=O)N(Cc1ccc(F)cc1)c1cccc(OCCN2CCOCC2)c1 (centres unmarked) [compound 189] |  | 70% | 300 nM
O=C(CCCC(=O)N(Cc1ccc(F)cc1)c1ccc(OCCN2CCCC2)cc1)N(CCc1ccccc1)Cc1ccccc1 [compound 191] | 27% |  | 
O=C(CCCC(=O)N(Cc1ccc(F)cc1)c1ccc(OCCN2CCOCC2)cc1)N(CCc1ccccc1)Cc1ccccc1 [compound 192] | 15% |  | 
O=C(CCCC(=O)N(Cc1ccc(F)cc1)c1ccc(OCCCN2CCCCC2)cc1)N(CCc1ccccc1)Cc1ccccc1 [compound 193] | 7% |  | 
CN(C)CCOc1ccc(N(Cc2ccc(F)cc2)C(=O)CCCC(=O)N(CCc2ccccc2)Cc2ccccc2)cc1 [compound 194] | 23% |  | 
